{"source": "patent EP0182984B1", "about": "“Use of fully synthetic alpha-human atrial natriuretic peptide (alpha-hANap)” (PHARMA BISSENDORF PEPTIDE GMBH, priority 1984, dated 1992)", "conditions": "in vivo", "source_text": "An LD₅₀ could so far not be determined.", "data": [{"molecule": "CC[C@H](C)[C@@H]1NC(=O)[C@H](CCCNC(=N)N)NC(=O)[C@H](CC(=O)O)NC(=O)[C@H](CCSC)NC(=O)[C@H](CCCNC(=N)N)NC(=O)CNC(=O)CNC(=O)[C@H](Cc2ccccc2)NC(=O)[C@@H](NC(=O)[C@H](CO)NC(=O)[C@H](CO)NC(=O)[C@H](CCCNC(=N)N)NC(=O)[C@H](CCCNC(=N)N)NC(=O)[C@H](CC(C)C)NC(=O)[C@@H](N)CO)CSSC[C@@H](C(=O)N[C@@H](CC(N)=O)C(=O)N[C@@H](CO)C(=O)N[C@@H](Cc2ccccc2)C(=O)N[C@@H](CCCNC(=N)N)C(=O)N[C@@H](Cc2ccc(O)cc2)C(=O)O)NC(=O)CNC(=O)[C@H](CC(C)C)NC(=O)CNC(=O)[C@H](CO)NC(=O)[C@H](CCC(N)=O)NC(=O)[C@H](C)NC(=O)CNC1=O", "note": "[alpha-hANaP, alpha-human atrial natriuretic peptide]", "values": [{"measurement": "side-effects to the heart and circulation system, to the bronchial system, to the liver and renal functions, to the gonads, and to the central nervous system", "result": "No serious side-effects"}]}]}
